Here are results for 18 compounds from patent US20260258036A1, “INHIBITORS OF HUMAN ALDOSTERONE SYNTHASE (CYP11B2)” («TARGET MEDICALS» LIMITED LIABILITY COMPANY, priority 2022, published 2026).

One experiment addresses T1, recombinant CYP11B2 (Homo sapiens, UniProt P19099).
T1 sequence (P19099 25-503): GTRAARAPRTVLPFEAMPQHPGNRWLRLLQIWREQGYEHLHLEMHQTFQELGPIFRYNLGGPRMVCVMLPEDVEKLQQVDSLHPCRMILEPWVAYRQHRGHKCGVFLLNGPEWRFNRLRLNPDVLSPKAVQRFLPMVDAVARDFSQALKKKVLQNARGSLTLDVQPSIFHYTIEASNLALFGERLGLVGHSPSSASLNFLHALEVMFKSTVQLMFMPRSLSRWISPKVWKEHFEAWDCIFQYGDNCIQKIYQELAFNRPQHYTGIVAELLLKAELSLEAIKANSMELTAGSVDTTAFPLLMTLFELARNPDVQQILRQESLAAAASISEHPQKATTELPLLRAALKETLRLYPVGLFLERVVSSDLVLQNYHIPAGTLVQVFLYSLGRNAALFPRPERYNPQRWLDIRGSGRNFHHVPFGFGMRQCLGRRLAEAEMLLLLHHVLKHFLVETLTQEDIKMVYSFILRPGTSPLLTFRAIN
The experiment is described as follows: Inhibition of CYP11B2 activity in a reconstructed enzyme system (HPLC with UV detector). To be noted: compounds 1_xx; test compound final concentration ≤2 μM; corticosterone substrate; 30 minutes at 37° C.; read-out: Level of CYP11B2 activity inhibition. Type of experiment: biochemical. How it is done:
The authors of the present invention investigated the activity of the compounds according to the invention as inhibitors of CYP11 B2 when analyzed in a reconstructed system containing 0.5 μm recombinant CYP1 1B2, 0.3 μm human adrenodoxin reductase, 2 μm human adrenodoxin, 100 μm corticosterone as a control reaction to detect the formation of a product with using an HPLC system with a UV detector. The test compound is added to the reaction mixture to a final concentration of ≤2 μM. The concentrated protein mixture was diluted with buffer to a final volume of 0.5 ml, pre-incubated for 10 min at 37° C., followed by the addition of the substrate. Reactions are initiated by adding NADPH (nicotinamide adenine dinucleotide phosphate) to a final concentration of 0.25 mM with a regenerating system (glucose-6-phosphate and glucose-6-phosphate dehydrogenase) in 25 mM potassium phosphate buffer, pH 7.4, containing 0.1 mM DTT (dithiothreitol), 0.1% Tween-20.4 mM MgCl2 and incubated at 37° C. After 30 minutes of incubation, the reaction is stopped by adding 5 ml of dichloromethane. The organic phase is isolated by centrifugation, evaporation, dissolution in ethanol and transferred to a vial for HPLC studies. A C18 Luna 100 Å 250×4, 6 mm column was used on an Agilent Technologies 1200 series instrument (USA) with ethanol as the mobile phase.
Activity (a) is calculated as the amount of product in nmol per minute per 1 nmol of CYP.
where k is the correction factor (k=1 is used as the molar extinction coefficients of steroid substrates and products similar at a detection wavelength of 254 nm), As is the peak area of the substrate, cs is the concentration of the substrate, Ap is the peak area of the product, ce is the concentration of CYP (cytochrome P450), t is the reaction time.
The level of inhibition of CYP11 B2 activity is expressed as a percentage, where 0% is defined as no inhibition in reactions without test compound and 100% is absolute inhibition by test compound.
Turning to `O=S(=O)(c1cc(F)c(O)c(F)c1)N1CCc2c(-c3ccccn3)cncc21` [Compound 1_16, 2,6-difluoro-4-((4-(pyridin-2-yl)-2,3-dehydro-H-pyrrolo[2,3-c]pyridin-1-yl)sulfonyl)phenol], the inhibition at 2 µM fell in the range of 50 to 100%. On the same count and under the same terms, in the case of `COc1c(C)cc(S(=O)(=O)n2ccc3c(-c4ccc(C)cn4)cncc32)cc1C` [Compound 1_01, 1-(4-methoxy-3,5-dimethylphenyl)sulfonyl-4-(5-methyl-2-pyridyl)pyrrolo[2,3-c]pyridine] it was 50 to 100%; in that of `CN1CCN(c2c(F)cc(S(=O)(=O)n3ccc4c(-c5ccc(C6CC6)cn5)cncc43)cc2F)CC1` [Compound 1_31, 4-(5-cyclopropylpyridin-2-yl)-1-((3,5-difluoro-4-(4-methylpiperazin-1-yl)phenyl)sulfonyl)-1H-pyrrolo[2,3-c]pyridine], 50 to 100%. On the same count and under the same terms, then `Cc1cnc(-c2cncc3c2ccn3S(=O)(=O)c2cc(F)c(N)c(F)c2)cn1` [Compound 1_32, 2,6-difluoro-4-((4-(5-methylpyrazin-2-yl)-1H-pyrrolo[2,3-c]pyridin-1-yl)sulfonyl)aniline], with 50 to 100%. The same measure, in the same setting: in the case of `CN1CCN(c2c(F)cc(S(=O)(=O)N3CCc4c(-c5ccccn5)cncc43)cc2F)CC1` [Compound 1_17, 1-((3,5-difluoro-4-(4-methylpiperazin-1-yl)phenyl)sulfonyl)-4-(pyridin-2-yl)-2,3-dihydro-1H-pyrrolo[2,3-c]pyridine] it was 50 to 100%; in that of `CC(C)Oc1c(F)cc(S(=O)(=O)n2ccc3c(-c4ccccn4)cncc32)cc1F` [Compound 1_06, 1-((3,5-difluoro-4-isopropoxyphenyl)sulfonyl)-4-(pyridin-2-yl)-1H-pyrrolo[2,3-c]pyridine], 50 to 100%; in that of `O=S(=O)(c1cc(F)c(N2CCSCC2)c(F)c1)n1ccc2c(-c3ccccn3)cncc21` [Compound 1_23, 4-(2,6-difluoro-4-((4-(pyridin-2-yl)-1H-pyrrolo[2,3-c]pyridin-1-yl)sulfonyl)phenyl)thiomorpholine], 50 to 100%. As to `Cc1ccc(-c2cncc3c2ccn3S(=O)(=O)c2cc(F)c(N(C)C)c(F)c2)nc1` [Compound 1_33, 2,6-difluoro-N,N-dimethyl-4-((4-(5-methylpyridin-2-yl)-1H-pyrrolo[2,3-c]pyridin-1-yl)sulfonyl)aniline], the inhibition at 2 µM was in the range of 50 to 100%.

Staying with this experiment, now noted: compounds 2_xx, 3_xx, 4_01; test compound final concentration ≤2 μM; corticosterone substrate; 30 minutes at 37° C.; read-out: Level of CYP11B2 activity inhibition.
For the compound `NC1CCN(c2c(F)cc(S(=O)(=O)n3ccc4c(-c5ccccn5)cncc43)cc2F)CC1` [Compound 3_15, 1-(2,6-difluoro-4-((4-(pyridin-2-yl)-1H-pyrrolo[2,3-c]pyridin-1-yl)sulfonyl)phenyl)piperidin-4-amine], the inhibition at 2 µM is 35 to 100%.

For the compound `O=S(=O)(c1cc(F)c(N2CCNCC2)c(F)c1)n1ccc2c(-c3ccccn3)cncc21` [Compound 3_01, 1-((3,5-difluoro-4-(piperazin-1-yl)phenyl)sulfonyl)-4-(pyridin-2-yl)-1H-pyrrolo[2,3-c]pyridine], the inhibition at 2 µM lay within 20 to 100%. Still for that read-out and setting: in the case of `CN1CC2CCC(C1)N2c1c(F)cc(S(=O)(=O)n2ccc3c(-c4ccccn4)cncc32)cc1F` [Compound 3_19, 1-((3,5-difluoro-4-(3-methyl-3,8-diazabicyclo[3.2.1]octan-8-yl)phenyl)sulfonyl)-4-(pyridin-2-yl)-1H-pyrrolo[2,3-c]pyridine] it was 35 to 100%; in that of `CNc1ccc(-c2cncc3c2ccn3S(=O)(=O)c2cc(F)c(N3CCN(C)CC3)c(F)c2)nn1` [Compound 3_07, 6-(1-((3,5-difluoro-4-(4-methylpiperazin-1-yl)phenyl)sulfonyl)-1H-pyrrolo[2,3-c]pyridin-4-yl)-N-methylpyridazin-3-amine], 35 to 100%; in that of `CN1CCN(c2c(F)cc(S(=O)(=O)n3ccc4c(-c5ccc(C#N)cn5)cncc43)cc2F)CC1` [Compound 3_06, 6-(1-((3,5-difluoro-4-(4-methylpiperazin-1-yl)phenyl)sulfonyl)-1H-pyrrolo[2,3-c]pyridin-4-yl)nicotinonitrile], 35 to 100%. Still for that read-out and setting: then `N#Cc1ccc(-c2cncc3c2ccn3S(=O)(=O)c2cc(F)c(N3CC4CNCC4C3)c(F)c2)cn1` (stereo not drawn) [Compound 3_28, 5-(1-((3,5-difluoro-4-(hexahydropyrrolo[3,4-c]pyrrol-2(1H)-yl)phenyl)sulfonyl)-1H-pyrrolo[2,3-c]pyridin-4-yl)picolinonitrile], with 35 to 100%; and `O=S(=O)(c1cc(F)c(N2CCN(C3CC3)CC2)c(F)c1)n1ccc2c(-c3ccccn3)cncc21` [Compound 3_12, 1-((4-(4-cyclopropylpiperazin-1-yl)-3,5-difluorophenyl)sulfonyl)-4-(pyridin-2-yl)-1H-pyrrolo[2,3-c]pyridine], with 20 to 100%; and `O=S(=O)(c1cc(F)c(N2CCN3CCC2C3)c(F)c1)n1ccc2c(-c3ccccn3)cncc21` (stereo not drawn) [Compound 3_20, 1-((4-(1,4-diazabicyclo[3.2.1]octan-4-yl)-3,5-difluorophenyl)sulfonyl)-4-(pyridin-2-yl)-1H-pyrrolo[2,3-c]pyridine], with 35 to 100%.

For `O=S(=O)(c1cc(F)c(N2CCCNCC2)c(F)c1)n1ccc2c(-c3ccccn3)cncc21` [Compound 3_14, 1-((4-(1,4-diazepan-1-yl)-3,5-difluorophenyl)sulfonyl)-4-(pyridin-2-yl)-1H-pyrrolo[2,3-c]pyridine], the inhibition at 2 µM was 35 to 100%. In the case of `CN1CC2CN(c3c(F)cc(S(=O)(=O)n4ccc5c(-c6ccc(C(=O)NC(C)(C)C)nc6)cncc54)cc3F)CC2C1` (stereo not drawn) [Compound 2_03, N-(tert-butyl)-5-(1-((3,5-difluoro-4-(5-methylhexahydropyrrolo[3,4-c]pyrrol-2(1H)-yl)phenyl)sulfonyl)-1H-pyrrolo[2,3-c]pyridin-4-yl)picolinamide], the inhibition at 2 µM lay within 35 to 100%.

By inhibition is commonly meant the percentage by which the read-out fell short of the control.
